# Results taken from article PMC9239047 (mBio, 2022).
# Positions of bridges follow the written chain, without caps; N, C: chain ends. Residues, ends and D or L forms follow the SMILES beside them.
# Assays:
# [1] = tested on: S. hominis AH5009 PSM-β1 production; experiment: Mass spectrometric detection of PSM-β1 in conditioned medium; assay type: cell-based, Staphylococcus hominis; conditions: 100 μM apicidin or DMSO, 8 h; LC-MS; triplicate injections of biological triplicates
# [2] = tested on: S. hominis AH5009 AgrA-regulated genes; experiment: RNA-seq of apicidin-treated S. hominis agr-I; assay type: cell-based, Staphylococcus hominis
# S. hominis agr-I = S. hominis agr-I P3::sGFP reporter assay (AH5009 + pCM41); assay type: cell-based, Staphylococcus hominis; conditions: for S. hominis agr-I reporter growth (OD600): increasing concentrations of synthetic AIP; for effect on S. hominis agr-I fluorescent signal (in words): increasing doses of synthetic AIP, early signal
# USA300 MRSA (strain LAC) = experiment: Murine dermonecrosis model; assay type: in vivo, BALB/c mice; conditions: 10 or 50 μg synthetic AIP-II in DMSO mixed with 1 × 10^8 CFU MRSA, intradermal; vs vehicle; n = 10 per group; dose dependent
# MRSA agr-IV = MRSA agr-IV (Staphylococcus aureus, UniProt Q309Z2); experiment: MRSA agr-IV P3::YFP fluorescent reporter assay; assay type: cell-based; conditions: for inhibition of MRSA agr-IV by synthetic AIP (in words): synthetic AIP dose response, 24 h fluorescence
# MRSA agr-III = MRSA agr-III (Staphylococcus aureus, UniProt O33590); experiment: MRSA agr-III P3::YFP fluorescent reporter assay; assay type: cell-based
# MRSA agr-II = MRSA agr-II (Staphylococcus aureus, UniProt O33587); experiment: MRSA agr-II P3::YFP fluorescent reporter assay; assay type: cell-based
# MRSA strain LAC = experiment: Murine epicutaneous infection; assay type: in vivo, C57BL/6J mice
# MRSA agr-I = MRSA agr-I (Staphylococcus aureus, UniProt O07911); experiment: MRSA agr-I P3::YFP fluorescent reporter assay; assay type: cell-based
# S. hominis agr-II = S. hominis agr-II P3::sGFP reporter assay (AH4553 + pCM41); assay type: cell-based, Staphylococcus hominis; conditions: for S. hominis agr-II reporter growth (OD600): increasing concentrations of synthetic AIP; for effect on S. hominis agr-II fluorescent signal (in words): increasing doses of synthetic AIP, early signal
# MRSA = conditions: mouse model; cited from earlier work
# S. epidermidis agr-I = S. epidermidis agr-I (Staphylococcus epidermidis, UniProt O86861); experiment: S. epidermidis agr-I P3::sGFP reporter assay; assay type: cell-based
# [3] = 100 μM apicidin vs DMSO, 4-fold cutoff, false discovery rate P value ≤0.05
# [4] = RNA-seq, S. hominis AH5009, 100 μM apicidin vs DMSO, 8 h, biological triplicate
# [5] = RNA-seq, S. hominis AH5009, 100 μM apicidin vs DMSO, 8 h, outside 4-fold cutoff
# [6] = 100 μM apicidin vs DMSO, over 24 h
# [7] = cognate AIP, fluorescence at 8 h
# Chain of MRSA agr-I (O07911 entry or part of it): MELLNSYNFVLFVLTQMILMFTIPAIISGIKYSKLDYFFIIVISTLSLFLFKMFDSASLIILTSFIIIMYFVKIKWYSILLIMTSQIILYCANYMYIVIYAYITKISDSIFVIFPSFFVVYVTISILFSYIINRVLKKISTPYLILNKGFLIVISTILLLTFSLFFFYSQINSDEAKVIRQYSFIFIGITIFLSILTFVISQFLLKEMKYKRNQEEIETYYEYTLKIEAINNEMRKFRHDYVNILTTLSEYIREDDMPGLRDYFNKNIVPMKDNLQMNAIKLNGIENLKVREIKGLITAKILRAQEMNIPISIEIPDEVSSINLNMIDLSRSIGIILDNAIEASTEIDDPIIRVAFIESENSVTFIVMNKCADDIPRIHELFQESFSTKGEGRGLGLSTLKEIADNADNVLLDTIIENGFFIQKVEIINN
# Chain of MRSA agr-III (O33590 entry or part of it): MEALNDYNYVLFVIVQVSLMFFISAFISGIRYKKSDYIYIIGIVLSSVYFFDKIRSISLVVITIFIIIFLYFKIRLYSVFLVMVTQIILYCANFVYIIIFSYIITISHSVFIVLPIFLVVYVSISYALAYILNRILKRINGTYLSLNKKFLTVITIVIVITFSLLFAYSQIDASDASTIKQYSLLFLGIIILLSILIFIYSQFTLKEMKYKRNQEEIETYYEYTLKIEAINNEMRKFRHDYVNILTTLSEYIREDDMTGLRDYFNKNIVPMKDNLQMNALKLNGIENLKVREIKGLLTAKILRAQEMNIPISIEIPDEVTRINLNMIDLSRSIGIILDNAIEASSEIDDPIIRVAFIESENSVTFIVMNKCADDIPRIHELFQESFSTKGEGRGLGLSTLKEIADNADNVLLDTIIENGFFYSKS
# Chain of MRSA agr-IV (Q309Z2 entry or part of it): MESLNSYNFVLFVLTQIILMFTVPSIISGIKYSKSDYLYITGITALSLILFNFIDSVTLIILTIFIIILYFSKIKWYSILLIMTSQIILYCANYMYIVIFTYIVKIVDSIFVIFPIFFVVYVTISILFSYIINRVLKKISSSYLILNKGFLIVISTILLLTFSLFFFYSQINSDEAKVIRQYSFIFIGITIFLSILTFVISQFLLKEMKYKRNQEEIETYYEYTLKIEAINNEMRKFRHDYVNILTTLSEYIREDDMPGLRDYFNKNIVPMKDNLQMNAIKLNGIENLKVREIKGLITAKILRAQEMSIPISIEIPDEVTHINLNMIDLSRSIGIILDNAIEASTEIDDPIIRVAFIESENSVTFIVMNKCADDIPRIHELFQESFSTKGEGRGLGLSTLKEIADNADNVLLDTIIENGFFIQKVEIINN
# Chain of MRSA agr-II (O33587 entry or part of it): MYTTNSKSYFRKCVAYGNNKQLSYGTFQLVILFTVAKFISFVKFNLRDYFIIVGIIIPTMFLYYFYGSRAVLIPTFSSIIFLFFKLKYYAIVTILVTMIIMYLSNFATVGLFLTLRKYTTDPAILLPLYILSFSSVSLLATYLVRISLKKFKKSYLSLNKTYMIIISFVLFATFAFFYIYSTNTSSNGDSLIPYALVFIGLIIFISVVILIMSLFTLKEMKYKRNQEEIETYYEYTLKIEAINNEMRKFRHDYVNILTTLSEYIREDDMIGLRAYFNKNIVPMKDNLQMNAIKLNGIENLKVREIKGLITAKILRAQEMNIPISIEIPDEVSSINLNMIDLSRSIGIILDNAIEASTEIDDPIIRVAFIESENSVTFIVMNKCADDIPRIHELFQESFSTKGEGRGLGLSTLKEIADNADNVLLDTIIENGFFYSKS
# Chain of S. epidermidis agr-I (O86861 entry or part of it): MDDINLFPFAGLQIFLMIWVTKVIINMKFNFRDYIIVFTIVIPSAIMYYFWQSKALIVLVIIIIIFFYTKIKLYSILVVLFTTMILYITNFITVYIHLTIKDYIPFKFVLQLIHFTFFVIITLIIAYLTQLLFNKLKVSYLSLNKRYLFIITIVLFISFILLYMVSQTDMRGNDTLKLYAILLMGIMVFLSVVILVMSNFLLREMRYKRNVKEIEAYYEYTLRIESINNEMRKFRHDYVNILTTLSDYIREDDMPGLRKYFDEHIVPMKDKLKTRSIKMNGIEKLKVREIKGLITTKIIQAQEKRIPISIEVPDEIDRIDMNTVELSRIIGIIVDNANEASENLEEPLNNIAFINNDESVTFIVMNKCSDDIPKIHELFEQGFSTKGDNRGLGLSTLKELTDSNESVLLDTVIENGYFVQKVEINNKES
smiles,measurement,setting,value
CCC(=O)CCCCC[C@@H]1NC(=O)[C@H]2CCCCN2C(=O)[C@H]([C@@H](C)CC)NC(=O)[C@H](Cc2cn(OC)c3ccccc23)NC1=O [apicidin],PSM-β1 presence in S. hominis cultures,[1],"present only in S. hominis cultures treated with DMSO, not in those treated with apicidin"
same,number of genes downregulated,[2]; [3],40 genes
same,number of genes significantly upregulated,[2]; [3],7 genes
same,"Fold change, MOV58_00040 serine--tRNA ligase",[2]; [4],-5.87 fold
same,"Fold change, MOV58_00405 arsenate reductase",[2]; [4],-5.32 fold
same,"Fold change, MOV58_00410 anion permease",[2]; [4],-4.39 fold
same,"Fold change, MOV58_00550 (S)-acetoin forming diacetyl reductase",[2]; [4],-7.89 fold
same,"Fold change, MOV58_01010 acetoin reductase/dehydrogenase",[2]; [4],-5.45 fold
same,"Fold change, MOV58_01015 yxel choloylglycine hydrolase family protein",[2]; [4],-4.94 fold
same,"Fold change, MOV58_01105 excinuclease ABC subunit UvrA",[2]; [4],8.12 fold
same,"Fold change, MOV58_01110 arylamine N-acetyltransferase",[2]; [4],9.09 fold
same,"Fold change, MOV58_01115 ABC2 transporter permease",[2]; [4],9.05 fold
same,"Fold change, MOV58_01120 ABC transporter ATP binding protein btuD",[2]; [4],10.45 fold
same,"Fold change, MOV58_01125 DUF3169 family protein",[2]; [4],19.01 fold
same,"Fold change, MOV58_01130 helix turn helix transcriptional regulator",[2]; [4],18.5 fold
same,"Fold change, MOV58_02040 aldehyde dehydrogenase family protein",[2]; [4],-4.94 fold
same,"Fold change, MOV58_05440 hypothetical protein",[2]; [4],-5.09 fold
same,"Fold change, MOV58_05705 hypothetical protein",[2]; [4],-4.08 fold
same,"Fold change, MOV58_05710 hypothetical protein",[2]; [4],-6.86 fold
same,"Fold change, MOV58_05715 fructose-bisphosphatase class III",[2]; [4],-6.94 fold
same,"Fold change, MOV58_05720 hypothetical protein",[2]; [4],-5.64 fold
same,"Fold change, MOV58_05820 hypothetical protein",[2]; [4],-9.59 fold
same,"Fold change, MOV58_06035 universal stress protein",[2]; [4],-4.69 fold
same,"Fold change, MOV58_06695 RNA polymerase sigma factor RpoD",[2]; [4],-10.14 fold
same,"Fold change, MOV58_07655 hypothetical protein",[2]; [4],4.07 fold
same,"Fold change, MOV58_07775 hypothetical protein",[2]; [4],-4.58 fold
same,"Fold change, MOV58_07810 MerR family transcriptional regulator",[2]; [4],-4.32 fold
same,"Fold change, MOV58_08480 beta class phenol soluble modulin",[2]; [4],-11.36 fold
same,"Fold change, MOV58_08485 beta class phenol soluble modulin",[2]; [4],-11.33 fold
same,"Fold change, MOV58_08490 beta class phenol soluble modulin",[2]; [4],-9.37 fold
same,"Fold change, MOV58_08495 beta class phenol soluble modulin",[2]; [4],-8.82 fold
same,"Fold change, MOV58_09035 hypothetical protein",[2]; [4],-4.5 fold
same,"Fold change, MOV58_09040 IDEAL domain containing protein",[2]; [4],-6.02 fold
same,"Fold change, MOV58_09615 Hypothetical protein",[2]; [4],-4.82 fold
same,"Fold change, MOV58_09645 hypothetical protein",[2]; [4],-5.25 fold
same,"Fold change, MOV58_09650 hypothetical protein",[2]; [4],-5.02 fold
same,"Fold change, MOV58_09655 hypothetical protein",[2]; [4],-4.73 fold
same,"Fold change, MOV58_09715 phosphoglycerate kinase",[2]; [4],-6.94 fold
same,"Fold change, MOV58_09720 type I glyceraldehyde-3-phosphate dehydrogenase",[2]; [4],-4.93 fold
same,"Fold change, MOV58_09725 CggR, central glycolytic genes regulator",[2]; [4],-7.22 fold
same,"Fold change, MOV58_09730 hypothetical",[2]; [4],-5.22 fold
same,"Fold change, MOV58_10080 fructose-specific PTS transporter subunit EIIC",[2]; [4],-4.31 fold
same,"Fold change, MOV58_10085 1-phosphofruktokinase",[2]; [4],-22.43 fold
same,"Fold change, MOV58_10090 DeoR/GlpR family DNA-binding transcription regulator",[2]; [4],-27.93 fold
same,"Fold change, MOV58_10435 alpha/beta hydrolase",[2]; [4],-6.85 fold
same,"Fold change, MOV58_10445 Hypothetical protein",[2]; [4],-10.93 fold
same,"Fold change, MOV58_10515 flavodoxin family protein",[2]; [4],-5.24 fold
same,"Fold change, MOV58_10990 Hypothetical protein",[2]; [4],-4.65 fold
same,"Fold change, MOV58_11890 LytTR family DNA binding domain containing protein",[2]; [4],-7.12 fold
same,"Fold change, MOV58_11895 DUF3021 domain-containing protein",[2]; [4],-5.21 fold
same,"RNAIII expression, down -fold",[2]; [5],3.40 fold
same,"agrB expression, down -fold",[2]; [5],2.89 fold
same,"agrD expression, down -fold",[2]; [5],3.08 fold
same,S. hominis agr-I P3::sGFP growth (OD600),S. hominis agr-I; [6],no effect on growth
same,S. hominis agr-I signaling (P3::sGFP fluorescence),S. hominis agr-I; [6],inhibited S. hominis agr-I signaling
C[C@@H]1NC(=O)[C@@H](NC(=O)[C@@H]2CCCN2C(=O)[C@H](CO)NC(=O)[C@H](Cc2ccc(O)cc2)NC(=O)[C@@H](N)CO)CSC(=O)[C@H](Cc2ccccc2)NC(=O)[C@H](Cc2ccc(O)cc2)NC(=O)[C@H]([C@@H](C)O)NC1=O [AIP-II] (H-SYSPCATYF; thioester 5-C; N-terminus assumed),dermonecrotic lesion size,USA300 MRSA (strain LAC),significantly smaller lesions
same,IC50,MRSA agr-IV,1130 nM
same,inhibition of MRSA agr-IV by synthetic AIP (in words),MRSA agr-IV,poorly inhibited
same,IC50,MRSA agr-III,3 nM
same,IC50,MRSA agr-II,2110 nM
same,barrier function by transepithelial water loss (TEWL),"MRSA strain LAC; 10 or 50 μg synthetic AIP-II with 1 × 10^8 CFU MRSA on gauze, 72 h topical, vs vehicle, n = 10 per group",retained more of their barrier function
same,total CFU burden in epicutaneous lesions,"MRSA strain LAC; 10 or 50 μg synthetic AIP-II, 72 h postinfection",no differences in CFU between groups
same,gross morphology of the skin,"MRSA strain LAC; synthetic AIP-II-treated vs vehicle control mice, 72 hpi","less redness, scaling, and erythema"
same,IC50,MRSA agr-I,15 nM
same,concentration of synthetic AIP optimal to boost S. hominis agr-II fluorescent signal,S. hominis agr-II; [7],12.5 nM
same,S. hominis agr-II reporter growth (OD600),S. hominis agr-II,no effect on growth
same,S. hominis agr-I reporter growth (OD600),S. hominis agr-I,no effect on reporter growth
same,IC50,"S. hominis agr-I; read-out: IC50, inhibition of S. hominis agr-I signaling, noncognate synthetic AIP dose response, relative fluorescence at 8 h, three independent experiments pooled",9 nM
CC(C)[C@H](NC(=O)[C@@H](NC(=O)[C@H](CCC(N)=O)NC(=O)[C@@H](N)CO)[C@@H](C)O)C(=O)N[C@H]1CSC(=O)[C@H](Cc2ccccc2)NC(=O)[C@H](Cc2ccc(O)cc2)NC(=O)CNC(=O)[C@H](CO)NC1=O [AIP-V] (H-SQTVCSGYF; thioester 5-C; N-terminus assumed),IC50,MRSA agr-IV,3810 nM
same,inhibition of MRSA agr-IV by synthetic AIP (in words),MRSA agr-IV,poorly inhibited
same,IC50,MRSA agr-III,4 nM
same,IC50,MRSA agr-II,59 nM
same,IC50,MRSA agr-I,43 nM
same,S. hominis agr-II reporter growth (OD600),S. hominis agr-II,did not impact the growth
same,effect on S. hominis agr-II fluorescent signal (in words),S. hominis agr-II,modestly inhibited agr-II
same,S. hominis agr-I reporter growth (OD600),S. hominis agr-I,did not impact the growth
same,effect on S. hominis agr-I fluorescent signal (in words),S. hominis agr-I,weak to negligible effects on agr-I
CC(C)[C@H](NC(=O)[C@H](CC(N)=O)NC(=O)[C@H](Cc1ccc(O)cc1)NC(=O)[C@@H](N)CO)C(=O)N[C@H]1CSC(=O)[C@H](Cc2ccccc2)NC(=O)[C@H](Cc2ccc(O)cc2)NC(=O)CNC(=O)CNC1=O [AIP-I] (H-SYNVCGGYF; thioester 5-C),MRSA-associated AD symptoms,MRSA,effectively mitigates MRSA-associated AD symptoms
same,inhibition of MRSA agr-IV by synthetic AIP (in words),MRSA agr-IV,poorly inhibited
same,inhibition of S. epidermidis agr-I (in words),S. epidermidis agr-I; synthetic AIP dose response,poor inhibitor
same,S. epidermidis agr-I early fluorescent signal,"S. epidermidis agr-I; synthetic AIP, first 8 h of incubation",boosted the fluorescent signal
same,S. hominis agr-II reporter growth (OD600),S. hominis agr-II,no impact on reporter growth
same,IC50,"S. hominis agr-II; read-out: IC50, inhibition of S. hominis agr-II fluorescent signaling, noncognate synthetic AIP dose response, relative fluorescence at 8 h, three independent experiments pooled",7 nM
same,concentration of synthetic AIP that significantly boosted S. hominis agr-I fluorescent signal,S. hominis agr-I; [7],≥ 25 nM
same,S. hominis agr-I reporter growth (OD600),S. hominis agr-I,no effect on growth
CC[C@H](C)[C@H](NC(=O)[C@@H](N)[C@@H](C)O)C(=O)N[C@@H](CC(N)=O)C(=O)N[C@H](C(=O)N[C@H]1CSC(=O)[C@H](Cc2ccccc2)NC(=O)[C@H](Cc2ccc(O)cc2)NC(=O)CNC(=O)CNC1=O)[C@@H](C)O [AIP-IV] (H-TINTCGGYF; thioester 5-C; N-terminus assumed),inhibition of MRSA agr-IV by synthetic AIP (in words),MRSA agr-IV,not inhibited
same,IC50,MRSA agr-III,37 nM
same,IC50,MRSA agr-II,140 nM
same,IC50,MRSA agr-I,128 nM
same,S. hominis agr-II reporter growth (OD600),S. hominis agr-II,did not impact the growth
same,effect on S. hominis agr-II fluorescent signal (in words),S. hominis agr-II,negligible effects on agr-II
same,S. hominis agr-I reporter growth (OD600),S. hominis agr-I,did not impact the growth
same,effect on S. hominis agr-I fluorescent signal (in words),S. hominis agr-I,slightly boosted early agr-I signaling
